In patent publication US9181266B2, “2-piperidin-1-yl-acetamide compounds for use as tankyrase inhibitors” (NOVARTIS AG, priority 2011, dated 2015):
Where “and” joins values, the source holds several entries; their conditions need not be identical. Equal values may be shown once. Read-outs that look alike come from different tables or passages of the source.

Tests used:
[1] = tested on: Axin2 protein in SW480 cells; test: Cellular ELISA assay of Axin2 protein stabilization; assay type: cell-based; settings: Homo sapiens, 24 hrs, read-out: Axin AC50
Description: Cellular ELISA Assay to Determine Compound Effect on Stabilizing the Axin2 Protein Compound activity in stabilizing the Axin2 protein was measured by Sandwich Enzyme-Linked Immuosorbent (ELISA) assay in the colorectal cell line SW480. 30,000 SW480 cells were seeded per well in 96-well plate and incubated overnight prior to compound treatment. […] Cells were then washed with 100 μL of cold Phosphate Buffer Saline (PBS), and lysed in 125 μl of cold 1× lysis buffer (Cell Signaling Technology, 9803) supplemented with Protease inhibitor (Roche, 11836170) and Phosphatase inhibitors (Sigma, P2850, P5726). For the ELISA assay, anti Axin-2 capture antibody (Strategic Diagnostics) antibody was diluted to a concentration of 1 μg/ml (1:1000) in Carbonate Coating buffer, pH 9.2 (Sigma, C3041-50CAP). […], of the diluted anti Axin-2 capture antibody per well was then used to coat the 96-well ELISA plate (Thermo Electron Corp., MicroLite 1 flat bottom plate #7571) overnight at 4° C. […] After blocking, plates were then washed three times with 300 μl/well of wash solution. 100 μL of prepared SW480 cell lysate was then added to each well and incubated at room temperature for 2 hours while shaking gently. After washing, 100 μL of Biotinylated anti-Axin2 antibody (CST, 2151) was added to each well and incubated room temperature for 2 hours. 100 μL of Streptavidin-HRP (R&D systems, DY998) diluted 1:200 in 1% BSA/PBS was then added in each well and incubate for 30 mins at R/T in the dark.

[2] = target: tankyrase 2 protein PARP domain, TNKS2P (Homo sapiens (Human), UniProt Q9H2K2); test: TNKS2 autoparsylation assay (LC/MS detection of nicotinamide); settings: read-out: TNKS2 AP IC50, 20 nM enzyme, 250 μM β-NAD+, 60 min
tankyrase 2 protein PARP domain, TNKS2P, sequence (Q9H2K2 959-1164): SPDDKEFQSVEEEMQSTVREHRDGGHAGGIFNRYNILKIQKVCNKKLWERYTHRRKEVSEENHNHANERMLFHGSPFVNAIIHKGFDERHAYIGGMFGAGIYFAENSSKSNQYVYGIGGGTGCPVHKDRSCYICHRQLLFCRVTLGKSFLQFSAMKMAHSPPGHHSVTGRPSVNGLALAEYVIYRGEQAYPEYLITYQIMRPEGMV

[3] = target: human tankyrase 1 PARP catalytic domain, TNKS1P (Homo sapiens (Human), UniProt O95271); test: TNKS1 autoparsylation assay (LC/MS detection of nicotinamide); settings: read-out: TNKS1 AP IC50, 20 nM enzyme, 250 μM β-NAD+, 60 min
human tankyrase 1 PARP catalytic domain, TNKS1P, sequence (O95271 1112-1317): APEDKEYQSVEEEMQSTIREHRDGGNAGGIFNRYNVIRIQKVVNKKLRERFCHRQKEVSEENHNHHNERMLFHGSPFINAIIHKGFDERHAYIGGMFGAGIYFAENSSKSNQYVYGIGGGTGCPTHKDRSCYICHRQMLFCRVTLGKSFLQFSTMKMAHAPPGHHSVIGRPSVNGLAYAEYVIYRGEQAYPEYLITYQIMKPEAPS

[4] = target: PARP2 (Mus musculus (Mouse), UniProt O88554); test: PARP2 autoparsylation assay (LC/MS detection of nicotinamide); assay type: biochemical; settings: 20 nM enzyme, 250 μM β-NAD+, 60 min
PARP2, sequence (O88554 whole entry): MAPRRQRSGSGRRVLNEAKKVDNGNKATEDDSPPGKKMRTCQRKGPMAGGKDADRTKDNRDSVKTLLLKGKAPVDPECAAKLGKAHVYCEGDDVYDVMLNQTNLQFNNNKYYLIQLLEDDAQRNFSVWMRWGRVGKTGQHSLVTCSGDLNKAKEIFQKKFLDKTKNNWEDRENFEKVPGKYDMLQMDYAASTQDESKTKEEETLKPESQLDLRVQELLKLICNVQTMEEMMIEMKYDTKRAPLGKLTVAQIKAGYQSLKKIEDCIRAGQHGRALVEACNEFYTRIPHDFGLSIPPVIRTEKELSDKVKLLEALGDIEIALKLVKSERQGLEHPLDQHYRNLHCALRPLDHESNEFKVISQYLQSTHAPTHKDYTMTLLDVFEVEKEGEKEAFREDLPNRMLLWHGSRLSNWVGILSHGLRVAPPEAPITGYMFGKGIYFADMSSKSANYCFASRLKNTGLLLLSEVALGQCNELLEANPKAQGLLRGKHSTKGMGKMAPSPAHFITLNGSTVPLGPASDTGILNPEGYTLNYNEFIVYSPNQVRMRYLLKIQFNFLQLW
Description: (§1) The autoparsylation activity of the TNKS 1/2 or PARP1/2 enzymes was measured by the liquid chromatography-mass spectrometry (LC/MS) detection of nicotinamide as readout. Compound activity in inhibiting the TNKS and PARP autoparsylation was evaluated by IC50 measurements.

[5] = target: Human PARP1 (Homo sapiens (Human), UniProt P09874); test: PARP1 autoparsylation assay (LC/MS detection of nicotinamide); assay type: biochemical; settings: 20 nM enzyme, 250 μM β-NAD+, 60 min
Human PARP1, sequence (P09874 whole entry): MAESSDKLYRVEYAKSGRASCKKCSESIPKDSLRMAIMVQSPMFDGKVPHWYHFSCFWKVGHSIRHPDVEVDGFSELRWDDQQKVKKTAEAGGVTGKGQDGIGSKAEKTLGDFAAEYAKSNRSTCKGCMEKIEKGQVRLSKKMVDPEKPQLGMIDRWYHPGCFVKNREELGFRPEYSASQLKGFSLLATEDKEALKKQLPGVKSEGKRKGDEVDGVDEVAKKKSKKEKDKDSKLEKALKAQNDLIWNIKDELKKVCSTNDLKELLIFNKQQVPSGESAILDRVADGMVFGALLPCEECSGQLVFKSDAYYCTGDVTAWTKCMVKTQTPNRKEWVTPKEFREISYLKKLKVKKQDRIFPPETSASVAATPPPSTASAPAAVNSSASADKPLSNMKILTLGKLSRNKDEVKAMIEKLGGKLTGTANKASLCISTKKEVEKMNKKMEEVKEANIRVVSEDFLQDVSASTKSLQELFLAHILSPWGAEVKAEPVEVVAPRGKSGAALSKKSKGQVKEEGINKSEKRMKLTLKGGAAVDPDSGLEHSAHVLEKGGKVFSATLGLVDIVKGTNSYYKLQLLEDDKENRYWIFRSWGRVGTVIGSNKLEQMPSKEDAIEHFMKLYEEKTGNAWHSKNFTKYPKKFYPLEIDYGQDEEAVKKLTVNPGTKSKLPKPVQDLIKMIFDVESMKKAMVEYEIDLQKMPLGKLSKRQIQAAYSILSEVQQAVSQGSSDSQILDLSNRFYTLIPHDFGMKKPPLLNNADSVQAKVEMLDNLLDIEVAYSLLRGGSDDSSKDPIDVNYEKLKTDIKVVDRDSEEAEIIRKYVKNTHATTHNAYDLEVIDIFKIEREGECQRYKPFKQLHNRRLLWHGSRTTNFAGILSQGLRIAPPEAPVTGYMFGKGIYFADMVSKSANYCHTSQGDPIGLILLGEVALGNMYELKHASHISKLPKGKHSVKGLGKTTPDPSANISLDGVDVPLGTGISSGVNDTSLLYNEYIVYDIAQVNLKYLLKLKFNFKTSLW
Description: as §1

[6] = tested on: Wnt ligand-induced signaling in HEK293 cells; test: Wnt-responsive Super-TOpFlash (STF) luciferase reporter gene assay; assay type: cell-based; settings: Homo sapiens, Wnt3A condition medium
Description: Cellular Reporter Gene Assay to Determine Compound Inhibition of Wnt Signaling Activity
Compound activity in inhibiting Wnt ligand-induced signaling was measured using a Wnt-responsive Super-TOpFlash (STF) luciferase reporter gene assay in HEK293 cells. On day 1 of the assay, cells were plated at a density of 8000 cells per well of 384-well plate in 25 μl medium containing 5% fetal bovine serum (FBS). On the second day, […] condition medium (CM) produced from mouse L cells was added to the cells to induce Wnt signaling, followed by addition of 5 μL of compounds each well in 10-point serial dilution. On the third day, the luciferase activity was measured by the Bright-Glo™ Luciferase Assay System following manufacture's protocol (Promega, E2620). The Inhibition was calculated as: (Maximum Wnt-induced signaling−Sample)/(Maximum Wnt-induced signaling−Background)*100. “Maximum Wnt-induced signaling” is the STF signal level induced by 20% Wnt3A CM without compound; and “Background” is the STF signal level without the addition of Wnt3A CM or compound.

[7] = tested on: Non-small lung cancer ABC-1 cells; test: Cellular proliferation assay (CellTiter-Glo); assay type: cell-based; settings: Homo sapiens, read-out: ABC-1 IC50
Description: Cellular Proliferation Assay to Determine Compound Inhibition of Cancer Cell Growth
Viable cells were measured after 3 days of compound treatment using the CellTiter-Glo assay (Promega, G7570). Assay was performed following the manufacture protocol.

[8] = 72 h, ABC-1 cells, 3 days of compound treatment

| IC50 [2] [µM] | IC50 [3] [µM] | IC50 [7, 8] [µM] | SMILES | AC50 [1] [µM] | IC50 [4] [µM] | IC50 [5] | IC50 [6] [µM] | IC50 ([7]; ABC-1, 72 h) [µM] |
| --- | --- | --- | --- | --- | --- | --- | --- | --- |
| 0.027 ± 0.001 | 0.1 ± 0.01 |  | COc1ccc(C(=O)C2CCN(CC(=O)NCc3cc4c(c(=O)[nH]3)COCC4)CC2)cc1 [Example 97, 2-[4-(4-Methoxy-benzoyl)-piperidin-1-yl]-N-(8-oxo-3,4,7,8-tetrahydro-1H-pyrano[3,4-c]pyridin-6-ylmethyl)-acetamide] | 0.266 ± 0.058 | 1.15 ± 0.009 | 7.5 ± 0.4 µM |  |  |
| 0.039 ± 0.003 | 0.222 ± 0.002 |  | O=C(CN1CCC(n2c(=O)[nH]c3ccccc32)CC1)NCc1nc2c(c(=O)[nH]1)COCC2 [Example 82, 2-(4-(2-Oxo-2,3-dihydro-1H-benzo[d]imidazol-1-yl)piperidin-1-yl)-N-((4-oxo-4,5,7,8-tetrahydro-3H-pyrano[4,3-d]pyrimidin-2-yl)methyl)acetamide] |  | 2.9 ± 0.9 | 32.4 ± 4.6 µM | 0.787 ± 0.023 |  |
|  |  |  | COc1ccc(C(=O)C2CCN(CC(=O)N(Cc3nc4c(c(=O)[nH]3)CCCC4)CC3CC3)CC2)cc1 [Example 8, N-(Cyclopropylmethyl)-2-(4-(4-methoxybenzoyl)piperidin-1-yl)-N-((4-oxo-3,4,5,6,7,8-hexahydroquinazolin-2-yl)methyl)acetamide] | 0.013 ± 0.003 | 9.14 ± 0.21 |  | 0.003 ± 0.001 | 0.022 |
| 0.043 ± 0.002 | 0.207 ± 0.017 |  | O=C(CN1CCC(c2noc3cc(F)ccc23)CC1)NCc1nc2c(c(=O)[nH]1)COCC2 [Example 51, 2-(4-(6-Fluorobenzo[d]isoxazol-3-yl)piperidin-1-yl)-N-((4-oxo-4,5,7,8-tetrahydro-3H-pyrano[4,3-d]pyrimidin-2-yl)methyl)acetamide] |  | 3.09 ± 0.39 | 7.63 ± 0.32 µM |  |  |
|  | > 19 |  | N#CCN(Cc1nc2c(c(=O)[nH]1)COCC2)C(=O)CN1CCC(C(=O)c2ccc(F)cc2)CC1 [Example 43, N-Cyanomethyl-2-[4-(4-fluoro-benzoyl)-piperidin-1-yl]-N-(4-oxo-3,5,7,8-tetrahydro-4H-pyrano[4,3-d]pyrimidin-2-ylmethyl)-acetamide] |  |  | > 19 µM and 42.9 µM | 0.362 |  |
|  |  |  | COc1ccc(C(=O)C2CCN(CC(=O)NCc3nc4c(c(=O)[nH]3)CCCC4)CC2)cc1 [Example 9, 2-(4-(4-Methoxybenzoyl)piperidin-1-yl)-N-((4-oxo-3,4,5,6,7,8-hexahydroquinazolin-2-yl)methyl)acetamide] | 0.009 ± 0.002 | 0.243 ± 0.066 |  | 0.003 ± 0.003 | 0.041 |
| 0.764 ± 0.051 | 1.17 ± 0.05 | 2.71 | O=C(c1ccc(OCc2ccccc2)cc1)C1CCN(CC(=O)N(Cc2nc3c(c(=O)[nH]2)COCC3)CC2CC2)CC1 [Example 77] | 4.48 ± 0.09 |  |  | 0.055 ± 0.008 |  |
| 0.038 ± 0.004 | 0.155 ± 0.015 | 0.59 | O=C(c1cccc(OC(F)(F)F)c1)C1CCN(CC(=O)N(Cc2nc3c(c(=O)[nH]2)COCC3)CC(F)F)CC1 [Example 74, N-(2,2-Difluoro-ethyl)-N-(4-oxo-3,5,7,8-tetrahydro-4H-pyrano[4,3-d]pyrimidin-2-ylmethyl)-2-[4-(3-trifluoromethoxy-benzoyl)-piperidin-1-yl]-acetamide] | 0.508 ± 0.05 |  |  | 0.0351 ± 0.0034 |  |
| 0.005 ± 0.001 | 0.031 ± 0.001 | 0.075 | O=C(c1ccccc1)C1CCN(CC(=O)N(Cc2nc3c(c(=O)[nH]2)COCC3)CC(F)F)CC1 [Example 68, 2-(4-Benzoyl-piperidin-1-yl)-N-(2,2-difluoro-ethyl)-N-(4-oxo-3,5,7,8-tetrahydro-4H-pyrano[4,3-d]pyrimidin-2-ylmethyl)-acetamide] | 0.041 ± 0.007 |  |  | 0.0052 ± 0.0008 |  |
| 0.043 | 0.129 ± 0.001 | 0.346 | O=C(CN1CCC(C(=O)c2ccc3c(c2)OCO3)CC1)NCc1nc2c(c(=O)[nH]1)COCC2 [Example 92, 2-[4-(Benzo[1,3]dioxole-5-carbonyl)-piperidin-1-yl]-N-(4-oxo-3,5,7,8-tetrahydro-4H-pyrano[4,3-c]pyrimidin-2-ylmethyl)-acetamide] | 0.154 ± 0.025 |  |  | 0.0091 ± 0.0012 |  |
| 0.815 ± 0.028 | 3.02 ± 0.049 | 0.026 | O=C(CN1CCC(C(=O)N2CCc3ccccc3C2)CC1)NCc1nc2c(c(=O)[nH]1)COCC2 [Example 79, N-((4-Oxo-4,5,7,8-tetrahydro-3H-pyrano[4,3-d]pyrimidin-2-yl)methyl)-2-(4-(1,2,3,4-tetrahydroisoquinoline-2-carbonyl)piperidin-1-yl)acetamide] | 0.027 ± 0.003 |  |  | 0.0065 ± 0.0027 |  |
| 0.016 ± 0.005 | 0.038 ± 0.003 | 0.032 ± 0.005 | CCOc1ccc(C(=O)C2CCN(CC(=O)NCc3nc4c(c(=O)[nH]3)COCC4)CC2)cc1F [Example 95, 2-[4-(4-Ethoxy-3-fluoro-benzoyl)-piperidin-1-yl]-N-(4-oxo-3,5,7,8-tetrahydro-4H-pyrano[4,3-c]pyrimidin-2-ylmethyl)-acetamide] | 0.026 ± 0.007 |  |  | 0.0066 ± 0.0007 |  |

| SMILES | IC50 [2] [µM] | IC50 [3] [µM] | IC50 [7, 8] [µM] | AC50 [1] [µM] | IC50 [4] [µM] | IC50 [5] | IC50 [6] [µM] | IC50 ([7]; ABC-1, 72 h) [µM] |
| --- | --- | --- | --- | --- | --- | --- | --- | --- |
| C#CCN(Cc1nc2c(c(=O)[nH]1)COCC2)C(=O)CN1CCC(C(=O)c2ccc(F)cc2)CC1 [Example 27, 2-(4-(4-Fluorobenzoyl)piperidin-1-yl)-N-((4-oxo-4,5,7,8-tetrahydro-3H-pyrano[4,3-d]pyrimidin-2-yl)methyl)-N-(prop-2-ynyl)acetamide] | 0.014 ± 0.001 | 0.043 ± 0.001 |  | 3.64 ± 0.66 | > 19 | > 19 µM | 0.053 ± 0.045 |  |
| C[C@H](c1ccccc1)N(Cc1nc2c(c(=O)[nH]1)COCC2)C(=O)CN1CCC(C(=O)c2ccc(F)cc2)CC1 [Example 4, 2-[4-(4-Fluoro-benzoyl)-piperidin-1-yl]-N-(4-oxo-3,5,7,8-tetrahydro-4H-pyrano[4,3-c]pyrimidin-2-ylmethyl)-N—((R)-1-phenyl-ethyl)-acetamide] | 0.016 ± 0.001 | 0.063 ± 0.005 |  | 0.363 ± 0.037 | > 19 | > 19 µM | 0.059 ± 0.017 |  |
| CC[C@H](C)CN(Cc1nc2c(c(=O)[nH]1)COCC2)C(=O)CN1CCC(C(=O)c2ccc(F)cc2)CC1 [Example 25, 2-[4-(4-Fluoro-benzoyl)-piperidin-1-yl]-N—((S)-2-methyl-butyl)-N-(4-oxo-3,5,7,8-tetrahydro-4H-pyrano[4,3-d]pyrimidin-2-ylmethyl)-acetamide] | 0.013 ± 0.001 | 0.037 ± 0.004 |  | 0.179 ± 0.026 | > 19 | > 19 µM | 0.03 ± 0.009 |  |
| O=C(c1ccc(F)cc1)C1CCN(CC(=O)N(Cc2cccc(F)c2)Cc2nc3c(c(=O)[nH]2)COCC3)CC1 [Example 19, 2-(4-(4-Fluorobenzoyl)piperidin-1-yl)-N-(3-fluorobenzyl)-N-((4-oxo-4,5,7,8-tetrahydro-3H-pyrano[4,3-d]pyrimidin-2-yl)methyl)acetamide] | 0.021 ± 0.001 | 0.084 ± 0.007 |  | 0.779 ± 0.083 | > 19 | > 19 µM | 0.092 ± 0.077 |  |
| C[C@@H](c1ccccc1)N(Cc1nc2c(c(=O)[nH]1)COCC2)C(=O)CN1CCC(C(=O)c2ccc(F)cc2)CC1 [Example 23, 2-[4-(4-Fluoro-benzoyl)-piperidin-1-yl]-N-(4-oxo-3,5,7,8-tetrahydro-4H-pyrano[4,3-d]pyrimidin-2-ylmethyl)-N—((S)-1-phenyl-ethyl)-acetamide] | 0.05 ± 0.001 | 0.209 ± 0.003 |  |  | > 19 | > 19 µM | 0.189 ± 0.076 |  |
